Measured values: patent US20090093509A1, “Methods and Compositions for the Treatment of Pruritus” (priority 2007, published 2009)
Where a name gives a salt, the structure may show the parent alone.

Assay: pH of aqueous solution
Type: physicochemical
Protocol: The pH of the formulations of the invention are greater than 3 and less than 7. For example, the pH can be 3-7, 3-6, 4-7, 4-6, or 4-5. The pH of the solution and the measured pH of the topical composition may not be the same. For the purposes of this specification, either pH may be relevant but it is preferred that the pH is defined as that in the aqueous phase and not in the final cream. The pH of a 0.1% w/v aqueous solution of nalmefene hydrochloride is 6.13 at 22.5° C.: the corresponding values for 1% and 5% solutions are 5.76 and 4.66.

**Q.** With `C=C1CC[C@@]2(O)[C@H]3Cc4ccc(O)c5c4[C@@]2(CCN3CC2CC2)[C@H]1O5` [nalmefene hydrochloride, 6-methylene-6-desoxy-N-cyclopropylmethyl-14-hydroxydihydronormorphine] as the compound, how does the “pH of aqueous solution” value (0.1% w/v aqueous solution, 22.5° C.) read?
**A.** 6.13

**Q.** What about the “pH of aqueous solution” value (1% solution) of the same compound?
**A.** 5.76

**Q.** And the “pH of aqueous solution” value (5% solution)?
**A.** 4.66
